Assay results taken from patent US6593358B1, “Thienyl-pyrazoles and their use for controlling pests” (Nihon Bayer Agrochem K.K., priority 1999, dated 2003).

Legend:
Meloidogyne incognita = assay: Test against Meloidogyne spp. (soil pot test); format: in vivo; conditions: soil contaminated with Meloidogyne incognita, final concentration 50 ppm; tomato (Kurihara) in pots, greenhouse 4 weeks; from root knot index
Experimental: Test Against Meloidogyne spp. (Soil Pot Test)
Preparation of Test Agent:
1 Part of the active compound is impregnated to 99 parts of pumice to obtain fine granules.
The active compound prepared as mentioned above is added to soil contaminated with Meloidogyne incognita to a final concentration of 50 ppm and then homogeneously mixed by stirring. Then a pot (1/5000 are) was filled with the soil. About 20 seeds of tomato (variety: Kurihara) were sown per pot. After cultivation in a greenhouse for 4 weeks, they were carefully pulled out not to damage the root and the root knot index and the controlling effect of the compound tested were determined as follows:
Degree of damage 0: No knot was formed (Complete control).
1: A few knots were formed.
2: Knots were formed to a medium extent.
3: Knots were formed to an intense extent.
4: Knots were formed to the most intense extent (which corresponds to non-treatment).
Based on the degree of damage acording to the aforementioned standard (0-4), the root knot index can be determined as follows (Equation 1) [formula]
The controlling effect which can be achieved by applying compounds according to the present invention can then be determined as follows (Equation 2): [formula]
The evaluation of the controlling effect towards nematodes is then done by connecting the values of the controlling effect with the following standards (a-d): […]

SMILES	melting point [°C]	Evaluation of controlling effect (Meloidogyne incognita)
CCCCCc1cc(-c2cccs2)n[nH]1 [Compound 83, 3-(2-thienyl)-5-n-pentylpyrazole]	68 to 73	a (Controlling effect 100-71%)
Cc1cc(-c2cccs2)n[nH]1	133 to 135	–
CCCCc1cc(-c2cccs2)n[nH]1 [Compound 82, 3-(2-thienyl)-5-n-butylpyrazole]	47 to 48	a (Controlling effect 100-71%)
CCCCCCc1cc(-c2cccs2)n[nH]1	53 to 55	–
ClCCOc1cc(-c2cccs2)n[nH]1	134 to 138	–
Oc1cc(-c2cccs2)n[nH]1	144 to 146	–
